Drawing on PubChem BioAssay AID1645862 (Buhrlage Lab, Dana-Farber Cancer Institute and Novartis …, 2021), this text covers IC50 for 60 molecules.

The source made the active and inactive calls. The rule behind the calls is not given here. Where only a bound is given, the exact number is not on record here.

The experiment addresses Ubiquitin carboxyl-terminal hydrolase 8 (Homo sapiens) (UniProt P40818). Nature of the experiment: Ubiquitin-specific protease 8 inhibitors, concentration-effect, biochemical, validation of initial actives (AID 1645862).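 Note: potency reflects inhibition of USP8 cleavage of a ubiquitin rhodamine substrate.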 The note with it: recombinant USP8 deubiquitinase activity assay.

Ubiquitin carboxyl-terminal hydrolase 8 (Homo sapiens), sequence (P40818 whole entry, looked up): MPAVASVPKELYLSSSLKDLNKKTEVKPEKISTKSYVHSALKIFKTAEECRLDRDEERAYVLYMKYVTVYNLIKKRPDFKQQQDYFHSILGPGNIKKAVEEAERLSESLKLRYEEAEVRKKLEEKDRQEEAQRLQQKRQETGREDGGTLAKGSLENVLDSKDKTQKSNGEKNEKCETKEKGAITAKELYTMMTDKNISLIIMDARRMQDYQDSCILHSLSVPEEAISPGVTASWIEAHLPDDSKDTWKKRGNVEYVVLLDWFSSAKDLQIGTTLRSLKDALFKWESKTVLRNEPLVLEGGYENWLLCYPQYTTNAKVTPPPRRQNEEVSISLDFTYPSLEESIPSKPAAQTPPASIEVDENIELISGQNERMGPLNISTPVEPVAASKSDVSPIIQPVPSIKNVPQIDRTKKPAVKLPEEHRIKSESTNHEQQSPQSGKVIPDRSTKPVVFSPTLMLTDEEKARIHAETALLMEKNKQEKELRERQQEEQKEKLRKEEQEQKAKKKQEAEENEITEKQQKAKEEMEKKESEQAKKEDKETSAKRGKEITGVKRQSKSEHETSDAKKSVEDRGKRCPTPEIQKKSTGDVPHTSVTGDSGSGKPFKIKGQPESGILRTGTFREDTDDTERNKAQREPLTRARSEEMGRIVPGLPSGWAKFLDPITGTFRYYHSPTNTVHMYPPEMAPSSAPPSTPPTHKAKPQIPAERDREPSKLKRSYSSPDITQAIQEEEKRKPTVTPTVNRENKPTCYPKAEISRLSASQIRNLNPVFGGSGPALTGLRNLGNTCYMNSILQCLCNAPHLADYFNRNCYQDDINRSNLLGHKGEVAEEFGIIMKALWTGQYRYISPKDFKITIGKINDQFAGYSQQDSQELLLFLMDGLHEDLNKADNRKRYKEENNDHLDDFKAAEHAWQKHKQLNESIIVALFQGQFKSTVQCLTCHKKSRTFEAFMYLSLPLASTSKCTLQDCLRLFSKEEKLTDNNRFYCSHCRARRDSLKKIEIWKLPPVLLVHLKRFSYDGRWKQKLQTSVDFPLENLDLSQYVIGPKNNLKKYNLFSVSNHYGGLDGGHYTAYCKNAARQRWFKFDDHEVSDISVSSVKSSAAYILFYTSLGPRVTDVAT

Consider `Cc1cccc(C)c1NC(=O)Cn1c(=O)n(CCCCC(=O)NCc2ccc3c(c2)OCO3)c(=O)c2ccccc21`, for which the IC50 was > 40 µM (inactive).

Consider `Cc1ccc(NC(=O)c2ccc3nn(CC(=O)Nc4ccc(F)cc4F)c(=O)n3c2)cc1`, for which the IC50 is > 40 µM (inactive). For `Cc1ccc(Cn2c(C(=O)O)c(CNCc3ccco3)c3ccccc32)cc1` the value was > 40 µM (inactive). On to `NS(=O)(=O)c1ccc(CNC(=O)c2ccc(Cl)c(S(=O)(=O)Nc3cc(Cl)ccc3Cl)c2)cc1`, for which the IC50 is > 40 µM (inactive). The figure for `COc1cc(NS(=O)(=O)c2ccc(NC(=O)COc3ccc(C)cc3Br)cc2)nc(OC)n1` is > 40 µM (inactive); for `COc1cc(OC)c2c(c1)C(=O)C1=C(COC(C)(O)C1)C2=O` (stereo not given) it is > 40 µM (inactive). For `Nc1c(-c2nc(-c3ccccc3Cl)no2)nnn1-c1ccc(Cl)cc1` the value was 4.79 µM; for `O=C(COc1ccc(Cl)cc1)Nc1noc(-c2cccs2)n1`, > 40 µM (inactive); for `Cc1sc(NC(=O)c2ccc(S(=O)(=O)N(C)Cc3ccccc3)cc2)c(C(N)=O)c1C`, > 40 µM (inactive).

Take `CC(=O)c1ccc(N2CCN(S(=O)(=O)c3cc4c(cc3C)NC(=O)CO4)CC2)cc1`: the IC50 was > 40 µM (inactive).

Turning to `O=C(COc1nc2ccccc2nc1N1CCOCC1)NC(c1ccccc1)c1ccccc1`, the IC50 was > 40 µM (inactive). For `O=C(Cn1nnc2ccccc21)Nc1nc(-c2ccc3c(c2)CCN3C(=O)c2ccccc2F)cs1` the value was > 40 µM (inactive); for `CN(C)S(=O)(=O)c1ccc(NC(=O)CN2CCCc3ccccc32)cc1`, > 40 µM (inactive).

On to `COc1ccc(NC(=O)c2nnc(C(=O)NCCN3CCCCCC3)s2)cc1`, for which the IC50 is > 40 µM (inactive). The figure for `COCCCNC(=O)c1ccc(Cn2c(=O)c3ccccc3n(CC(=O)Nc3ccc4c(c3)OCCO4)c2=O)cc1` is > 40 µM (inactive). The figure for `Cn1c(CCNC(=O)c2[nH]nc3c2CCc2ccccc2-3)nc2ccccc21` is > 40 µM (inactive); for `COC(=O)c1ccc2c(=O)n(CCCCCC(=O)NCCC3=CCCCC3)c(=O)[nH]c2c1` it is > 40 µM (inactive). For `O=C(NCc1ccc(Br)cc1)c1cc(-c2cccnc2)n[nH]1` the value was > 40 µM (inactive); for `COc1cccc(NC(=O)CCc2nnc3n(CCCOC(C)C)c(=O)c4ccccc4n23)c1`, > 40 µM (inactive). Turning to `CCc1ccccc1NC(=O)CN1C(=O)C2CCCC2=Nc2ccccc21` (stereo not given), the IC50 was > 40 µM (inactive). For the molecule `O=C(/C=C/c1c(F)cccc1Cl)N1CCc2ccccc2C1`, the IC50 was 22 µM. The figure for `COc1ccc(CC(=O)Nc2ccccc2-c2nc3ccccc3[nH]2)cc1OC` is > 40 µM (inactive); for `Cc1cccc(C(=O)OCC(=O)Nc2ccc3[nH]c(=O)[nH]c3c2)c1` it is > 40 µM (inactive). For `COC(=O)c1ccc(Nc2cc(C)nc3cc(C(F)(F)F)ccc23)cc1` the value was > 40 µM (inactive). As for `CO/C=C/C(=O)c1cc2cnc3c(=N)cc(NC(C)=O)c([nH]1)c23`, the IC50 is 1.44 µM. Take `N#Cc1cn2c(nc1-c1ccc(Cl)cc1)nc1ccccc12`: the IC50 is > 40 µM (inactive).

In the case of `O=c1c2cc(Br)ccc2[nH]c(=S)n1Cc1cccnc1`, the IC50 is > 40 µM (inactive).

Regarding `CCCCN1CC(C(=O)Nc2ccc(C(=O)Nc3ccc(C(N)=O)cc3)cc2)CC1=O` (stereo not given), the IC50 was > 40 µM (inactive). The figure for `CC(C)Cc1ccc(-c2cc(-c3ccc(C(F)(F)F)cc3)c(C#N)c(=O)[nH]2)cc1` is > 40 µM (inactive). The figure for `Cn1cc(NC(=O)Nc2cccc(C(F)(F)F)c2)c2ccccc2c1=O` is 9.33 µM; for `CCN(CC)C(=O)c1sc(NC(=O)/C=C/c2c(F)cccc2Cl)c(C#N)c1C` it is > 40 µM (inactive); for `Cc1cc(C)c(NC(=O)Cc2sc(Nc3ccc(C)c(C)c3)nc2O)c(C)c1` it is > 40 µM (inactive). For `COc1cccc(-c2cncc(C3CCN(S(=O)(=O)N(C)C)CC3)n2)c1` the value was > 40 µM (inactive).

Regarding `CCOc1ccc(-n2c(SCC(=O)Nc3ccc(C)cc3)nnc2-c2c[nH]c3ccccc23)cc1`, the IC50 is 28.1 µM.

Regarding `Cc1cc(C)c(NC(=O)Cn2c(SCc3cccc(F)c3)nc3cccnc32)c(C)c1`, the IC50 was > 40 µM (inactive). The figure for `Cc1ccc2c(c1)c(=O)c(C(=O)c1ccccc1)cn2CC(=O)Nc1ccc2c(c1)OCCO2` is > 40 µM (inactive). For `COc1ccc(S(=O)(=O)NC2CC(=O)N(c3ccc(Cl)cc3)C2)cc1` (stereo not given) the value was > 40 µM (inactive); for `COc1ccc(C(=O)CSc2nnc(-c3cc4ccccc4o3)n2C)cc1`, > 40 µM (inactive); for `COc1cc(CC(=O)Nc2ccccc2N2CCOCC2)cc(OC)c1OC`, > 40 µM (inactive). Regarding `CCN(Cc1ccccc1)C(=O)Cn1ccc2ccn(C)c2c1=O`, the IC50 was > 40 µM (inactive).

For the molecule `CCCC(O)CCCCCCCc1cc(O)cc(O)c1C(=O)OC(CCC)CCCCCCCc1cc(O)cc(O)c1` (stereo not given), the IC50 is > 40 µM (inactive). The figure for `Cc1cc(CN2CCCCC2c2cc(=O)n3ccnc3[nH]2)no1` (stereo not given) is > 40 µM (inactive); for `COc1ccc(OC)c2c(C)cc(N3CC(C)CC(C)C3)nc12` (stereo not given) it is > 40 µM (inactive); for `COc1ccc(-c2cc3nc([C@H](C)NC(=O)Cc4ccccc4C)nn3cn2)cc1` it is > 40 µM (inactive).

As for `Cc1ccc(Nc2nc(O)c(CC(=O)Nc3cccc(Cl)c3C)s2)cc1C`, the IC50 was > 40 µM (inactive). The figure for `Cc1cc(=O)n(C)c2c(O)c3c(cc12)c(C)cc(=O)n3C` is 0.256 µM; for `COc1ccc(Sc2nc3ccccc3n3cnnc23)cc1` it is 32.7 µM; for `Cc1ccc(-n2nc(C)c3c2NC(=O)CC3C(=O)c2cc3ccccc3o2)cc1C` (stereo not given) it is > 40 µM (inactive). Regarding `O=C(CN1C(=O)c2cccc3cccc1c23)NCCSCc1ccc(Cl)c(Cl)c1`, the IC50 is > 40 µM (inactive). The figure for `COc1ccc(NC(=O)COc2cc(C)nc(-c3ccc(C)cc3)n2)c(OC)c1` is > 40 µM (inactive); for `CSc1nc2ncn(CC(=O)Nc3ccc(Br)cc3)c(=O)c2s1` it is > 40 µM (inactive). In the case of `COc1cccc2cc(C(=O)Nc3nc(-c4ccncc4)cs3)oc12`, the IC50 is 19.9 µM. The figure for `COc1ccc(-c2onc(C)c2C)cc1S(=O)(=O)NCc1ccc(F)cc1` is > 40 µM (inactive). On to `CCc1cccc(NC(=O)Cc2nnc3ccc(-c4nc(C)no4)cn23)c1`, for which the IC50 is > 40 µM (inactive). The figure for `N#Cc1ccc(NC(=O)Nc2cccn(Cc3ccccc3F)c2=O)cc1` is > 40 µM (inactive); for `Cc1ccc(-n2c(=O)c3ccc(C(=O)NCc4ccco4)cc3n(CC(=O)NCCC3=CCCCC3)c2=O)cc1` it is > 40 µM (inactive); for `O=C(/C=C/c1ccco1)N1CCC(Cn2cccn2)CC1` it is > 40 µM (inactive). For `COc1cccc(-c2cc(C(=O)Nc3cc(C)n(Cc4ccc(Cl)cc4)n3)no2)c1` the value was > 40 µM (inactive); for `Cn1c(COc2cccc3cccnc23)nnc1SCC(=O)c1ccc(Cl)cc1Cl`, > 40 µM (inactive); for `COc1ccc2nc(-c3ccc(NC(=O)c4cccc(OC)c4OC)cc3)cn2n1`, > 40 µM (inactive).

A word on the IC50: it is the midpoint of a concentration-inhibition curve.
